Reference: patent US8414885B2, “Methods and compositions for treating cancer” (priority 2009, dated 2013)
Peptide text beside a SMILES is read from it. * marks the point of attachment. Cbz = O=C(OCc1ccccc1)*; CH2F = FC*

Tests used:
caspase-7 = biological target: T1, caspase-7 (Homo sapiens, UniProt P55210); experiment: Immunoblotting for caspase-7 activation in infected melanoma cells; type: cell-based; settings: delta-PK infected cultures, 24 hrs p.i.; PD150606 100 μM; z-VAD-fmk 100 μM (Sigma-Aldrich) or 20 μM (Promega)
T1 construct: endogenous in cells; host or cells: A2058 human melanoma cells infected with delta-PK
T1 sequence (P55210 24-198 limits assumed): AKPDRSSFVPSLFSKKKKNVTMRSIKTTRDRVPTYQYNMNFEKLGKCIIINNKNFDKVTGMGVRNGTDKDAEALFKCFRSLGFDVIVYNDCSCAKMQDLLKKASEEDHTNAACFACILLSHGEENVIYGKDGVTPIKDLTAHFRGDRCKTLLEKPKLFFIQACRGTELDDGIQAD
T1 sequence (P55210 207-303 limits assumed): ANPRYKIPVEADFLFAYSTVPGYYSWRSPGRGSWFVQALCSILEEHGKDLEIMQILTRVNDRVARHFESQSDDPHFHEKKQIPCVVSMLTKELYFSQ
Excerpt: (§1) FIG. 6. Calpain and caspase-7 and caspace-3 are activated in delta-PK infected melanoma cells. […] Data were quantified by densitometry and expressed as the ratio of the p76/p80 and p28 densitometric units +/−SD, respectively. Representatives of three replicate experiments are shown (***p<0.001 vs. Mock). B. The immunoblots in FIG. 6A were sequentially stripped and re-probed with antibodies to activated caspase-7, activated caspase-3, and actin. Data were quantified by densitometry and results are expressed as densitometric units +/−SD (**p<0.01, ***p<0.001 vs. Mock). C. […]
(§2) Cultured cells were lysed with radioimmunoprecipitation buffer [RIPA; 20 mM Tris-HCl (pH 7.4), […], 1% Nonidet P-40, 0.1% sodium dodecyl sulfate (SDS), 0.5% sodium deoxycholate] supplemented with protease and phosphatase inhibitor cocktails (Sigma-Aldrich), and sonicated twice for 30 seconds at 25% output power with a sonicator ultrasonic processor (Misonix, Inc., Farmingdale, N.Y.). […] Protein concentration was determined by the bicinchoninic assay (Pierce, Rockford, Ill.), and 100 μg protein samples were resolved by SDS-polyacrylamide gel elecrophoresis (SDS-PAGE) and transferred to polyvinylidene fluoride membranes followed by immunoblotting. […] Quantitation was by densitometric scanning with the Bio-Rad GS-700 imaging densitometer (Bio-Rad, Hercules, Calif.). […]

calpain = experiment: Immunoblotting for calpain activation in infected melanoma cells; type: cell-based, human; settings: delta-PK infected cultures; PD150606 100 μM; z-VAD-fmk 100 μM (Sigma-Aldrich) or 20 μM (Promega)
Excerpt: as §1, §2

caspase-3 = experiment: Immunoblotting for caspase-3 activation in infected melanoma cells; type: cell-based, human; settings: delta-PK infected cultures, PD150606 100 μM, 24 hrs p.i.
Excerpt: as §1, §2

| SMILES | effect of inhibitor on delta-PK induced caspase-7 activation / cleavage products (caspase-7) | effect of inhibitor on delta-PK induced calpain activation (p76/p80 ratio, p28) (calpain) | effect of inhibitor on levels of caspase-3p17 cleavage product (caspase-3) |
| --- | --- | --- | --- |
| O=C(O)/C(S)=C/c1ccc(I)cc1 [PD150606] | increased | inhibited | increased |
| COC(=O)C[C@H](NC(=O)[C@H](C)NC(=O)[C@@H](NC(=O)OCc1ccccc1)C(C)C)C(=O)CF [z-VAD-fmk, benzyloxcarbonyl-Val-Ala-Asp-fluormethyl ketone] (Cbz-Val-Ala-Asp(OMe)-CH2F) | inhibited | did not affect calpain activation | – |
